Test results from patent US7696357B2, “Stable hydrate of a muscarinic receptor antagonist” (Novartis International Pharmaceutical Ltd., priority 2002, dated 2010).

Experiment: storage stability / shelf life of the solid form
Format: physicochemical
Conditions: storage over time

Structure (SMILES)	stability on storage (in words) (hydrate)	stability on storage (in words) (listed as solid hydrate, hydrate)	stability on storage (in words)
NC(=O)C(c1ccccc1)(c1ccccc1)[C@@H]1CCN(CCc2ccc3c(c2)CCO3)C1 [darifenacin hydrate, (S)-2-{1-[2-(2,3-dihydrobenzofuran-5-yl)ethyl]-3-pyrrolidinyl}-2,2-diphenylacetamide hydrate]	stable over long periods	remain stable for well over a year	
NC(=O)C(c1ccccc1)(c1ccccc1)[C@@H]1CCN(CCc2ccc3c(c2)CCO3)C1 [free base, (S)-2-{1-[2-(2,3-dihydrobenzofuran-5-yl)ethyl]-3-pyrrolidinyl}-2,2-diphenylacetamide, reference compound]			very unstable
NC(=O)C(c1ccccc1)(c1ccccc1)[C@@H]1CCN(CCc2ccc3c(c2)CCO3)C1 [toluene solvate, (S)-2-{1-[2-(2,3-dihydrobenzofuran-5-yl)ethyl]-3-pyrrolidinyl}-2,2-diphenylacetamide toluene solvate]			not stable over medium to long term storage periods
